Reference: PMC6766518 (Physiological Reports, 2019)
Where two headings read alike, the source gives them in different places.

Legend:
[1] = tested on: female C57BL/6J mice (serum Ca^2+ and Pi); test: Serum Ca2+ and Pi, colorimetric; conditions: 80 µg/kg/day SC, 30 days; 24 h after last injection; vs vehicle; N = 5 mice/group
Method: All animal procedures were reviewed and approved by the Institutional Animal Care and Use Committee at James J. Peters Veterans Affairs Medical Center. […] No peptide injection was performed on the day of animal sacrifice.
Blood was collected and serum was separated as described above. Serum Ca^2+ and Pi concentrations were measured using colorimetric Ca^2+ and Pi assay kits (Cat numbers K380 and K410, respectively) as indicated by the manufacturer (BioVision, Milpitas, CA).
For in vivo studies, five mice/group were used. […] Statistical analyses were performed using GraphPad Prism and Microsoft excel. […] The results are presented as the means ± SD. […] For carrying out multiple group comparisons (all in vivo experiments), one‐way analysis of variance (ANOVA) was performed. When ANOVA indicated unequal means, Tukey's honestly significant difference (HSD) posthoc test was performed to determine which means were different to the level of significance. Statistical significance was considered when P value was less than 0.05 (P < 0.05).
Sera were collected at sacrifice (24 h after last injection) and levels of Ca^2+ and Pi were measured using specific colorimetric assays. (A) Serum Ca^2+ levels. (B) Serum Pi levels. The statistical designation directly listed on the top of each bar indicates the significance level in comparison to vehicle. […] The data in all graph are expressed as the means ± SD. […]

[2] = tested on: patients; conditions: cited from earlier work
[3] = tested on: RANKL gene expression; conditions: in vivo and in vitro; ref Ricarte et al. 2018; cited from earlier work
Excerpt: PTHR1 is a member of subclass B seven transmembrane spanning GTP‐binding protein (G‐protein) coupled receptors (GPCR) that activates multiple G‐proteins, primarily the Gs but also Gq/11, Gi, and G12/13 G‐proteins. As a result, PTHR1 activation stimulates multiple downstream pathways and events such as Gs/adenylate cyclase/cAMP/protein kinase A, Gq11/phospholipase C/diacylglycerol‐inositol‐triphosphate‐Ca/protein kinase C, phospholipase D, and Src/β‐arrestin/MAPK pathways and PTHR1 phosphorylation and internalization (Abou‐Samra et al. 1992; Sneddon et al. 2000; Tawfeek et al. 2001; Tawfeek et ...

[4] = tested on: patients with osteoporosis; conditions: ref Neer et al. 2001, cited from earlier work
Excerpt: Human life expectancy has increased, thanks to the advances in medical research and the subsequent improvement in health care. As a result, there is a growing demand for better management of the common illnesses of the increasing elderly population. One of these illnesses, osteoporosis, is a common world‐wide bone disorder and a major public health threat for 44 million Americans, 68% of them being women. Osteoporosis accounts for an estimated 1.5 million fractures in the US every year costing over 14 billion dollars. Furthermore, the National Osteoporosis Foundation estimates that 50% of wome ...

[5] = target: T1, PTHR1 (MC3T3‐E1 osteoblast cell line) (Mus musculus, UniProt P41593); test: Intracellular cAMP generation in MC3T3-E1 osteoblast cells; type: cell-based
T1 construct: host or cells: MC3T3-E1 subclone 4
T1 sequence (P41593 27-591): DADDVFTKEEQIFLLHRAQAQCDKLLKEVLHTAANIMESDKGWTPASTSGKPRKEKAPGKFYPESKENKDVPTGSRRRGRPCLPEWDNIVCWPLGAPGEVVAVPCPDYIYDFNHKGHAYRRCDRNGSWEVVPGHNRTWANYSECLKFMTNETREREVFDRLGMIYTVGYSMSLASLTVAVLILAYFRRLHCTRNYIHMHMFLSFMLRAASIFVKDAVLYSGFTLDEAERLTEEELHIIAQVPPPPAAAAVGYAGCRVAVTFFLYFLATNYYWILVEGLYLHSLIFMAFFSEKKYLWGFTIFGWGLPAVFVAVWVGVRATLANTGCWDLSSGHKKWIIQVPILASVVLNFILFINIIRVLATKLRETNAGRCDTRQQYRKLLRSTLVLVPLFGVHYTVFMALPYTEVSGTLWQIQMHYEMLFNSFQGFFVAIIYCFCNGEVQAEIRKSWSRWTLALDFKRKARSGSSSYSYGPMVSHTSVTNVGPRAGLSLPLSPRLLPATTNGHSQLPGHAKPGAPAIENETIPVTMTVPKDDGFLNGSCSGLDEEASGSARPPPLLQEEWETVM

[6] = target: T2, PTHR1 (Homo sapiens, UniProt Q03431); test: PathHunter eXpress PTHR1 CHO-K1 β-arrestin GPCR assay (β-arrestin recruitment); type: cell-based; conditions: CHO‐K1 cells; abaloparatide vs teriparatide; P = 0.02
T2 sequence (Q03431 27-593): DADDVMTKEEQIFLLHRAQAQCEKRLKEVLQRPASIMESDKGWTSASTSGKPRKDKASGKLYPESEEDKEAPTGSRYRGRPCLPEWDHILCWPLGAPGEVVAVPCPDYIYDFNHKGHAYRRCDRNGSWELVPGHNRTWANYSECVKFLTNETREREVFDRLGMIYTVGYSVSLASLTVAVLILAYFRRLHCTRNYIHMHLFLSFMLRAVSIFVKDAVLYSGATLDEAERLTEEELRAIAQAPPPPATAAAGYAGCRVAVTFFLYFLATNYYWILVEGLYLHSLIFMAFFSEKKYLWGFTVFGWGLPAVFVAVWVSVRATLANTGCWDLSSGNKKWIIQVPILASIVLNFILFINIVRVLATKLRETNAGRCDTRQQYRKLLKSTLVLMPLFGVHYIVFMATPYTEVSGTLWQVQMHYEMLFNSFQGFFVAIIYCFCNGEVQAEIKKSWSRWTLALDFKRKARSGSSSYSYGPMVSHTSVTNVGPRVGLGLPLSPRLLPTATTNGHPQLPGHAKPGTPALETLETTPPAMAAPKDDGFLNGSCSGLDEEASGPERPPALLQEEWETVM

CC[C@H](C)[C@H](NC(=O)[C@H](CCC(=O)O)NC(=O)[C@H](CO)NC(=O)[C@@H](NC(=O)[C@@H](N)CO)C(C)C)C(=O)N[C@@H](CCC(N)=O)C(=O)N[C@@H](CC(C)C)C(=O)N[C@@H](CCSC)C(=O)N[C@@H](Cc1cnc[nH]1)C(=O)N[C@@H](CC(N)=O)C(=O)N[C@@H](CC(C)C)C(=O)NCC(=O)N[C@@H](CCCCN)C(=O)N[C@@H](Cc1cnc[nH]1)C(=O)N[C@@H](CC(C)C)C(=O)N[C@@H](CC(N)=O)C(=O)N[C@@H](CO)C(=O)N[C@@H](CCSC)C(=O)N[C@@H](CCC(=O)O)C(=O)N[C@@H](CCCN=C(N)N)C(=O)N[C@H](C(=O)N[C@@H](CCC(=O)O)C(=O)N[C@@H](Cc1c[nH]c2ccccc12)C(=O)N[C@@H](CC(C)C)C(=O)N[C@@H](CCCN=C(N)N)C(=O)N[C@@H](CCCCN)C(=O)N[C@@H](CCCCN)C(=O)N[C@@H](CC(C)C)C(=O)N[C@@H](CCC(N)=O)C(=O)N[C@@H](CC(=O)O)C(=O)N[C@H](C(=O)N[C@@H](Cc1cnc[nH]1)C(=O)N[C@@H](CC(N)=O)C(=O)N[C@@H](Cc1ccccc1)C(=O)O)C(C)C)C(C)C [teriparatide]
Elevation in serum Pi [1]: 50%
Patients with hypercalcemia ([2]; transient and infrequent event, ref Miller et al. 2018): 6.4%

PTH: PTH as administered in cited studies; context points to the amino‐terminal fragment PTH1‐34 (SVSEIQLMHNLGKHLNSMERVEWLRKKLQDVHNF; Parathyroid hormone; UniProt P01270 32-65, looked up, fragment)
RANKL gene expression [3]: larger RANKL gene expression in vivo and in vitro
Increase in BMD in spine and femur versus bisphosphonates ([4]; men and women with osteoporosis): more efficiently than treatment with bisphosphonates
Decrease in risk of vertebral and nonvertebral fractures [4]: more than 50%

CC[C@H](C)[C@H](NC(=O)[C@H](CO)NC(=O)[C@H](CCCCN)NC(=O)CNC(=O)[C@H](CCCCN)NC(=O)[C@H](CC(=O)O)NC(=O)[C@H](Cc1cnc[nH]1)NC(=O)[C@H](CC(C)C)NC(=O)[C@H](CC(C)C)NC(=O)[C@H](CCC(N)=O)NC(=O)[C@H](Cc1cnc[nH]1)NC(=O)[C@H](CCC(=O)O)NC(=O)[C@H](CO)NC(=O)[C@@H](NC(=O)[C@H](C)N)C(C)C)C(=O)N[C@@H](CCC(N)=O)C(=O)N[C@@H](CC(=O)O)C(=O)N[C@@H](CC(C)C)C(=O)N[C@@H](CCCNC(=N)N)C(=O)N[C@@H](CCCNC(=N)N)C(=O)N[C@@H](CCCNC(=N)N)C(=O)N[C@@H](CCC(=O)O)C(=O)N[C@@H](CC(C)C)C(=O)N[C@@H](CC(C)C)C(=O)N[C@@H](CCC(=O)O)C(=O)N[C@@H](CCCCN)C(=O)N[C@@H](CC(C)C)C(=O)N[C@@H](CC(C)C)C(=O)NC(C)(C)C(=O)N[C@@H](CCCCN)C(=O)N[C@@H](CC(C)C)C(=O)N[C@@H](Cc1cnc[nH]1)C(=O)N[C@H](C(=O)N[C@@H](C)C(N)=O)[C@@H](C)O [abaloparatide]
EC50 ([5]; 0.01–100 nmol/L, 40 min at 37°C, 0.5 mmol/L IBMX, cAMP competitive ELISA, mean ± SD, three independent experiments, p = 0.02 between analogs, read-out: EC50 for cAMP formation): 0.3 ± 0.03 nM
Decrease in EC50 value for cAMP formation compared to teriparatide ([5]; abaloparatide vs teriparatide, p = 0.02): 2.3 fold
Patients with hypercalcemia ([2]; human, in vivo): 3.4%
EC50 for β‐arrestin recruitment lower than that of teriparatide [6]: 1.6 fold
